Data from patent US20040106124A1, “Methods for improving the treatment of major depression by genotyping for the gene for apolipoproteine e4 and for improving the terapeutic response of humans having major depression and carrying the gene for apolipoprotein e4” (priority 2001, published 2004).

Experiments:
[1] = system: patients 65 years of age and older with major depression; assay: Mini Mental State Examination (MMSE), cognition, in 8-week double-blind comparison; format: in vivo, human; conditions: for mean MMSE score, ε4 carriers compared with noncarriers: week 8, full cohort, analysis of covariance
Procedure: (§1) A multi-center, randomized, double-blind, 8-week comparison of paroxetine and mirtazapine was performed for 246 nondemented, cognitively intact patients 65 years of age and older with major depression. All patients were genotyped at the apoE locus as discussed further below.
(§2) After an initial evaluation period, the mirtazapine patients started with a 15 mg dose per day. After two weeks of treatment (Day 14), patients' dosages were raised to 30 mg per day. […] Subjects who rate “Much Improved” or “Very Much Improved” on the CGI Scale I continued on the same dose they were receiving during the previous week.
(§3) For paroxetine, the dosing system was the same, except that the starting dosage was 20 mg per day, raised to 30 mg per day, and to a maximum of 40 mg per day.
This test represents a brief standardized method to grade cognitive mental status. The test assesses orientation, attention, immediate and short-term recall, language, and the ability to follow verbal and written commands. The lower the score, the lower the cognitive mental status.
To screen patients for the gene, genomic DNA was extracted from EDTA-treated whole blood using the Puregene DNA extraction kit (available from Gentra Systems). […] J. Psychiatr. 154:603-608, 1997. Genotypes were determined by two observers blind as to the clinical or neuropathological diagnosis.
All statistical analyses were performed using the SAS software package (available from SAS Institute). […] For remitter and responder analyses of clinical measures of depression, Cochran-Mantel-Haenszel statistics were used. For comparison of medication and genotype groups on baseline demographic measures, two-way analyses of variance were used.

[2] = system: patients 65 years of age and older with major depression; assay: Clinical Global Impression Scale (CGI) in 8-week double-blind comparison; format: in vivo, human; conditions: day 14; for CGI scores, ε4 carriers compared with those without an ε4 allele: interaction p=0.029
From the text: Clinical Global Impression Scale (CGI) (Guy, W., ECDEU Assessment Manual for Psychopharmacology, DHEW Publication No. (ADM) 76-338, rev. 1976). The CGI scale is a global 7-point rating of the severity of the illness taking into account the preceding week (CGI-Severity) and a global 7-point rating of the clinical status of the subject since baseline (CGI-Change). A responder is defined as being “Much Improved” or “Very Much Improved”—having a CGI score of at least 2 according to CGI-Change. Thus, a higher CGI-Severity score corresponds to more severe depression whereas a higher CGI-Change score corresponds to lessened depression, or an improvement in alleviating the symptoms of depression.
(§4) J. Psychiatr. 154:603-608, 1997.
(§5) All statistical analyses were performed using the SAS software package (available from SAS Institute). For clinical measures of depression (HDRS-21, HDRS-17, GDS, and CGI), analyses of covariance were performed with baseline values as the covariate, and apoE genotype (ε4 allele carrier vs. non-carder) and medication (mirtazapine, paroxetine) as the predictors. For remitter and responder analyses of clinical measures of depression, Cochran-Mantel-Haenszel statistics were used. For comparison of medication and genotype groups on baseline demographic measures, two-way analyses of variance were used.

[3] = system: patients 65 years of age and older with major depression; assay: Discontinuation due to adverse events in 8-week double-blind comparison; format: in vivo, human
Procedure: as §5

[4] = Plasma drug concentrations in 8-week double-blind comparison
Procedure: as §1, §2, §3

[5] = system: patients 65 years of age and older with major depression; assay: Geriatric Depression Scale (GDS) in 8-week double-blind comparison; format: in vivo, human; conditions: for GDS scores, ε4 carriers compared with noncarriers / 50% reduction in GDS score, ε4 carriers compared with those without an ε4 allele / GDS scores, patients with an ε4 allele compared with those without: day 14; for GDS scores, ε4 carriers compared with noncarriers: Caucasian patients; for 50% reduction in GDS score, ε4 carriers compared with those without an ε4 allele / GDS scores, patients with an ε4 allele compared with those without / 50% reduction in GDS score, ε4 carriers compared with noncarriers: full cohort; for number of patients showing a 50% reduction in GDS, ε4 carriers compared with noncarriers / 50% reduction in GDS score, ε4 carriers compared with noncarriers: day 28; for number of patients showing a 50% reduction in GDS, ε4 carriers compared with noncarriers: Caucasian subjects
Procedure: Geriatric Depression Scale (GDS) (Yesavage, J. A. et al., J. Psychiatr. Res. 17:37-49, 1983), a self-rating scale developed specifically for rating depression in the elderly. In the GDS, a lower rating signifies less depression. GDS 50% responders are defined as subjects with a decrease on a post-baseline assessment of at least 50% as compared to baseline.
as §4, §5

[6] = system: patients 65 years of age and older with major depression; assay: Hamilton Depression Rating Scale (HDRS-17, HDRS-21) in 8-week double-blind comparison of paroxetine and mirtazapine; format: in vivo, human; conditions: for HDRS-21 scores, ε4 carriers compared with those without an ε4 allele: interaction p=0.033; for HDRS-17 scores, ε4 carriers compared with those without an ε4 allele: interaction p=0.036; for HDRS-21 50% responders: patients carrying an ε4 allele; for rate and onset of antidepressant response, mirtazapine compared with paroxetine: early weeks of treatment, summary of the example
From the text: Hamilton Depression Rating Scale (HDRS; 17 and 21 item versions of a structured interview) (Hamilton, M., J. Neurol. Neurosurg. Psychiatr. 23:56-62, 1960; Hamilton, M., Br. J. Soc. Clin. Psychol. 6:278-296,1967). […] In other words, a lower rating in the HDRS scale signifies less depression. In contrast, HDRS remitters, which are those patients showing the least depression, are defined as subjects who have an HDRS-17 score of less than 7 at a post-baseline visit.
as §4, §5

[7] = day 14, Caucasian patients, p=0.006
[8] = day 14, patients with an ε4 allele, full cohort

CN1CCN2c3ncccc3Cc3ccccc3C2C1 (stereo not shown) [mirtazapine, 1,2,3,4,10,14b-hexahydro-2-methylpyrazino [2,1-a]pyrido[2,3-c]benzazepine]
mean MMSE score, ε4 carriers compared with noncarriers [1]: no effect
CGI scores, ε4 carriers compared with noncarriers ([2]; Caucasian patients): significantly better
CGI scores, mirtazapine treated compared with paroxetine treated subjects ([2]; Caucasian patients, p=0.037): significantly better
improvement in CGI scores, mirtazapine-treated compared with paroxetine-treated patients ([2]; full cohort): Significantly greater improvement
CGI scores, ε4 carriers compared with those without an ε4 allele ([2]; full cohort): significantly lower scores
number of patients who discontinued due to adverse events, ε4 carriers compared with noncarriers ([3]; in vivo): no significant differences
plasma drug concentrations, ε4 carriers compared with non-ε4 carriers ([4]; in vivo): no differences
GDS scores, ε4 carriers compared with noncarriers [5]: significantly lower
50% reduction in GDS score, ε4 carriers compared with those without an ε4 allele [5]: significantly more likely
GDS scores, patients with an ε4 allele compared with those without [5]: large decrease
number of patients showing a 50% reduction in GDS, ε4 carriers compared with noncarriers [5]: significantly more
50% reduction in GDS score, ε4 carriers compared with noncarriers [5]: significantly more
improvement in HDRS-17 scores, mirtazapine-treated compared with paroxetine-treated patients ([6]; day 7, full cohort): significantly greater improvement
HDRS scores, improvement of ε4 carriers compared with noncarriers ([6]; day 14, Caucasian patients): greater improvement
mean HDRS-17 scores, mirtazapine compared with paroxetine [6, 7]: significantly lower
mean HDRS-21 scores, mirtazapine compared with paroxetine [6, 7]: significantly lower
percentage of ε4 carriers responding to medication treatment (50% reduction in HDRS-17, HDRS-21, HDRS-17 remission, 50% reduction in GDS), mirtazapine compared with paroxetine ([6]; day 14, Caucasian subjects): greater
improvement in HDRS-17 scores, mirtazapine-treated compared with paroxetine-treated patients ([6]; day 14, full cohort): Significantly greater improvement
improvement in HDRS-21 scores, mirtazapine-treated compared with paroxetine-treated patients ([6]; day 14, full cohort): Significantly greater improvement
HDRS-21 scores, ε4 carriers compared with those without an ε4 allele ([6]; day 14, full cohort): significantly lower scores
HDRS-17 scores, ε4 carriers compared with those without an ε4 allele ([6]; day 14, full cohort): significantly lower scores
HDRS-17 50% responders, ε4 carriers compared with those without an ε4 allele ([6]; day 14, full cohort, p=0.049): significantly more
HDRS-21 50% responders ([6]; day 14, full cohort): 48%
HDRS-17 remitters [6, 8]: 28%
HDRS-17 remitters ([6]; day 14, patients without an ε4 allele, full cohort): 7.1%
rate and onset of antidepressant response, mirtazapine compared with paroxetine [6]: higher rate of antidepressant response

Fc1ccc([C@@H]2CCNC[C@H]2COc2ccc3c(c2)OCO3)cc1 [paroxetine]
MMSE score, subjects with an ε4 allele compared with those without ([1]; Caucasian subjects, trend, p=0.05): lower MMSE score
mean MMSE score, ε4 carriers compared with noncarriers [1]: significantly lower
CGI scores, ε4 carriers compared with noncarriers ([2]; Caucasian patients): no differences
CGI scores, ε4 carriers compared with those without an ε4 allele ([2]; full cohort): higher scores
number of patients who discontinued due to adverse events, ε4 carriers compared with noncarriers ([3]; Caucasian subjects): no significant differences
number of patients who discontinued due to adverse events, ε4 carriers compared with noncarriers ([3]; full cohort): no significant differences
plasma drug concentrations, ε4 carriers compared with non-ε4 carriers ([4]; Caucasian subjects): no differences
plasma drug concentrations, ε4 carriers compared with non-ε4 carriers ([4]; full cohort): no differences
GDS scores, ε4 carriers compared with noncarriers [5]: no effect
50% reduction in GDS score, ε4 carriers compared with those without an ε4 allele [5]: no difference
GDS scores, patients with an ε4 allele compared with those without [5]: no significant difference
number of patients showing a 50% reduction in GDS, ε4 carriers compared with noncarriers [5]: no significant effect
50% reduction in GDS score, ε4 carriers compared with noncarriers [5]: no effect
HDRS scores, improvement of ε4 carriers compared with noncarriers ([6]; day 14, Caucasian patients): less improvement
HDRS-21 scores, ε4 carriers compared with those without an ε4 allele ([6]; day 14, full cohort): higher scores
HDRS-17 scores, ε4 carriers compared with those without an ε4 allele ([6]; day 14, full cohort): higher scores
HDRS-21 50% responders ([6]; day 14, full cohort): none
HDRS-17 50% responders (50% decrease in HDRS-17 score over baseline) [6, 8]: none
HDRS-17 remitters [6, 8]: none
rate and onset of antidepressant response, mirtazapine compared with paroxetine [6]: slower onset of anti-depressant action
